# Measured values: patent publication US11357749B2, “Methods for treating neutropenia” (Enzychem Lifesciences Corporation, priority 2014, dated 2022)
# How the values were obtained:
# [1] = tested on: neutrophils and lymphocytes; test: Neutrophil and lymphocyte ratio in blood of LPS-treated Balb/C mice; format: in vivo; conditions: LPS 1 mg/kg i.p. + PLAG 5 mg/kg oral, % of total leukocytes
# Method: To observe the ratio of neutrophil and lymphocyte in the blood of Balb/C mice, 1 mg/kg of lipopolysaccharide (LPS) is injected to mice, i.p. to induce inflammation. 5 mg/kg of PLAG is administered to the mice orally and blood samples are taken at 3 and 13 days after. In addition, for comparison, normal mice that are not treated with PLAG, receive PBS (phosphate buffered saline) and olive oil. The blood samples taken from the mice are treated with EDTA bottle 0.5 ml (Minocollect tube, Greiner bio-one, Austria) and the level of neutrophils (NEU) and lymphocytes (LYM) as a percentage of total leukocytes is measured using automated blood sample analyzer BC-6800 (Mindray, Shenzhen, China).
# platelets = test: Pilot study in pancreatic cancer patients receiving chemotherapy: platelets; format: in vivo, human; conditions: 16 patients, Gemcitabine and Erlotinib, PLAG 1,000 mg once per day orally, two cycles
# Method: (§1) PLAG is administered to sixteen pancreatic cancer patients after chemotherapy. The subjects of this study are unoperable pancreatic cancer patients with ECOG (Eastern Cooperative Oncology Group) performance status of “0” or “1”, i.e. patients in good physical condition without much pain, able to enjoy almost normal lifestyle and thus, eligible for anticancer treatment for at least 2 months. The pancreatic cancer patients are “locally advanced” patients having tumor metastasis to the major vessels around pancreas or “Distant metastasis” patients with distant metastasis to liver, lung, bone, etc. ECOG performance status “0” refers to a patient who is asymptomatic, fully active, able to carry on all predisease activities without restriction with no pain and no problem for normal lifestyle, while “1” refers to a patient who is symptomatic but completely ambulatory with mile pain and a little problem for normal life. Anticancer (Gemcitabine and Erlotinib combo treatment) Regimen is as follows: 1,000 mg of Gemcitabine is injected once a week for three weeks (Day 1, Day 8, Day 15), and is not injected in the next one week (Day 22). Therefore, 1 cycle of anticancer treatment requires 1 month. 100 mg of Erlotinib (Tarceva) is administered once per day everyday orally. 1,000 mg of PLAG is also administered once per day orally, starting from 3 days before anticancer treatment until the last chemotherapy treatment. The PLAG treatment group and control group both completed two cycles of anticancer treatment. There is no difference among the control and PALG treatment groups in the amount or schedule of anticancer treatment.
# [2] = tested on: white blood cells and neutrophils; test: Cyclophosphamide-induced neutropenia in mice, G-CSF with or without PLAG; format: in vivo; conditions: PLAG 25 mpk p.o. added to G-CSF 0.25 mpk i.p., cyclophosphamide-treated mice
# Excerpt: Mice receive cyclophosphamide (100 mpk, i.p.) for a period of ten days, with or without G-CSF (0.25 mpk, i.p.) or G-CSF (0.25 mpk, i.p.) plus PLAG (25 mpk, p.o.): […]
# STAT1 = STAT1 transcriptional activity reporter assay in HepG2 cells; format: cell-based, human; conditions: HepG2, 10 ng IFN-γ, PLAG 0.01-10 μg/ml, 12 hours
# Method: By using STAT6 inhibitor (S6I), it is confirmed that the reduction of Complement 3 in HepG2 cells (human hepatocyte cell line) is regulated by STAT6. […] It is also confirmed that PLAG has selective efficacy on STAT6 over STAT1. FIG. 1 presents graphs showing STAT1 and STAT6 transcriptional activity in the PLAG treated HepG2 cells. NC refers to the unstimulated control cell. For the STAT1 assay, gene transfected HepG2 (human hepatocyte cell line) is treated with 10 ng of IFN-γ and serially diluted PLAG is added (0.01 μg/ml, 0.1 μg/ml, 1 μg/ml, and 10 μg/ml as shown) to see its effect on gene expression in the stimulated cell. For the STAT6 assay, gene transfected HepG2 cells are treated with 10 ng of IL-4 and again serially diluted PLAG is added (0.01 μg/ml, 0.1 μg/ml, 1 μg/ml, and 10 μg/ml as shown) to see its effect on gene expression in the stimulated cell. The assay is carried out following 12 hours incubation of treated cells.
# ERK1/2 = ERK1/2 phosphorylation, western blot in IgE-antigen stimulated RBL-2H3 cells; format: cell-based; conditions: PLAG pre-incubated RBL-2H3 cells, IgE-antigen complex stimulation
# Method: Dephosphorylation of p38 MAPK and ERK1/2 in PLAG-treated RBL-2H3 cells is determined by western blot analysis using anti-phospho-p38 and anti-phospho-ERK1/2 respectively. To activate the p38 and ERK1/2 in RBL-2H3 cells, the cells are sensitized with 50 ng/mL of anti-DNP-IgE overnight. After washing with PBS three times, 20 ng/ml of DNP-HSA is added. Each cell lysate for western blot is prepared in the PLAG-treated RBL-2H3 cells in a dose-dependent manner and incubated for the same time (15 min). β-actin is used as internal controls. ERK1/2 and p38 phosphorylation start immediately after IgE-antigen complex stimulation and remain sufficiently activated for 5 min.
# C3 = C3 protein by ELISA in HMC-1 cells; format: cell-based, human; conditions: HMC-1, PLAG 1, 10 and 100 μg/mL for 2 hours, 72 hours activation with 10% FBS
# Method: In a separate experiment, human mast cells (HMC-1, 1×10^5 cell/ml) are treated with PLAG of various concentrations (1, 10 and 100 μg/mL) for 2 hours. The cells are activated for 72 hours with 10% FBS (Fetal bovine serum) containing IMDM. The decrease of C3 is confirmed by ELISA analysis of the expressed protein.
# neutrophils = test: Pilot study in pancreatic cancer patients receiving chemotherapy: neutrophils (ANC); format: in vivo, human; conditions: 16 patients, Gemcitabine and Erlotinib, PLAG 1,000 mg once per day orally, two cycles
# Method: as §1
structure (smiles),measurement,setting,value
"CCCCC/C=C\C/C=C\CCCCCCCC(=O)OC(COC(C)=O)COC(=O)CCCCCCCCCCCCCCC (racemic) [PLAG, 1-palmitoyl-2-linoleoyl-3-acetylglycerol]",Lymphocyte ratio,[1],34.6 ± 7.0%
same,Neutrophil Ratio,[1],53.2 ± 6.3%
same,"patients whose platelet number dropped to less than 25,000",platelets,no patient
same,patients with >50% decrease in platelet count,platelets,43.8%
same,patients with >60% decrease in platelet count,platelets,25%
same,patients with >70% decrease in platelet count,platelets,none
same,"patients with anticancer treatment postponed or dose adjusted due to platelet number decrease to less than 50,000",platelets,no patient
same,increase of WBC over G-CSF alone,[2],more than 60%
same,increase of neutrophils over G-CSF alone,[2],more than 70%
same,STAT1 expression (transcriptional activity),STAT1,no effect
same,ERK1/2 phosphorylation,ERK1/2,down-regulated
same,decrease of C3 (ELISA),C3,proportional to the concentration of PLAG
same,"patients with neutrophil (ANC) decrease to less than 1,500/μl",neutrophils,37.5%
same,patients with neutrophil decrease to less than 500/μl,neutrophils,none
same,"patients with neutrophil decrease to less than 1,000/μl",neutrophils,18.8%
same,patients with neutrophil number decrease to less than 50%,neutrophils,37.5%
same,patients with neutrophil number decrease to less than 60%,neutrophils,18.8%
same,patients with neutrophil number decrease to less than 75%,neutrophils,none
